Holding throughout (format): cell-based
The test system of experiment [1] is TMD8 cells. Briefly: Viability assay of TMD8 cells (CTG). Particulars: cell viability, 120 hours. As to the method: (§1) The in vitro antiproliferative activity of the compounds of the present disclosure against TMD8 cells and OCI-LY10 cells was assayed using CTG (Cell Titer-Glo) luminescent cell viability assay. The specific assay methods were as follows. • a) TMD8 cells were cultured at 37 °C and 5% CO2 in complete medium [RPMI 1640 (supplier Gibco, product number 22400-089) + 10% FBS (supplier Gibco, product number 10091-148) + 1% P/S (supplier Hyclone, product number SV30010)]; OCI-LY10 cells were cultured at 37 °C and 5% CO2 in medium [IMDM (supplier Gibco, product number 31980-030) + 20% FBS (supplier Gibco, product number 10091-148) + 1% P/S (supplier Hyclone, product number SV30010) + 0.05 mM 2-Mercaptoethanol (supplier Sigma, product number M6250)]. • b) Cells in the logarithmic growth phase were harvested, and the total cell count and viable cell count were determined using a Vi-cell cell counter (supplier: BECKMAN COULTER, product number 2785198). • c) Cell density was adjusted using complete culture medium. Then, the cells were inoculated at 1500 cells per well in a 384-well cell culture plate (supplier Greiner, product number 781090). • d) The cells in the 384-well plate were cultured at 37 °C and 5% CO2 overnight. • e) A 10-fold drug solution was prepared, and then the serially diluted compound was transferred to the corresponding assay wells of the 384-well cell plate so that the final assay concentration was 1000 nM, with 9 concentrations, 3-fold dilutions, and triplicates for each drug concentration. • f) The cells in the 384-well plate with the drug added were cultured at 37 °C and 5% CO2 for another 120 hours. • g) The cells were removed from the incubator, and allowed to equilibrate at room temperature for 30 minutes. The cell state and compound solubility were observed under a microscope. • h) An equal volume of CellTiterGlo solution (supplier Promega, product number G7573) was added to each well, and the plate was incubated at room temperature for 30 minutes. • i) Then, the luminescent signal value was detected on an EnVision instrument (supplier PerkinElmer, product number 2441715).
(§2) The data were analyzed using XL-fit software (supplier: ID Business Solutions Ltd., software version: XL fit 5.5.0.5). Nonlinear regression was performed using X=Log(X), and the X values were transformed using a four-parameter Logistic model 205, from which the IC50 values were calculated. Inhibition rate % = (Max−samplevalue)/Max*100.(Max:DMSOnegativecontrol) [formula]

In experiment [2] the test system is Ramos cells with BTK WT. Briefly: Phosphor-BTK(Y223) assay, suspended cells. Particulars: phosphorylated BTK Y223, Ramos cells with BTK WT. The method in brief:
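Ramos BTK WT cells (2.5 k/well) were treated with compound dilutions for 2 h at 37 °C, then 5 mM Na3VO4 for 3 h. Lysates were read by HTRF p-BTK(Y223) cryptate/d2 antibodies overnight at RT (665/620 ratio). IC50 came from a four-parameter fit of % inhibition versus blank and positive-control wells.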

Experiment [3] has as its system OCI-LY10 cells. Nature of the experiment: Viability assay of OCI-LY10 cells (CTG). Conditions: cell viability, read-out: OCl-Ly10. As to the method:
as §1, §2

The text below walks through data of patent EP4741392A1, “1H-PYRAZOLO[4,3-C]PYRIDINE COMPOUND, AND COMPOSITION THEREOF AND USE THEREOF” (Shenzhen TargetRx Co., Ltd., priority 2023, dated 2025).

Where two headings read alike, the source gives them in different places.

In the case of `COc1ccc(F)cc1C(=O)NCc1ccc(-c2nc(C(C)C(F)(F)F)cc3[nH]nc(N)c23)cc1` (single isomer, unassigned) [Example 2, N-(4-(3-amino-6-(1,1,1-trifluoropropan-2-yl)-1H-pyrazolo[4,3-c]pyridin-4-yl)benzyl)-5-fluoro-2-methoxybenzamide], the IC50 lay in the range of 5 to 10 nM in experiment [1] (Homo sapiens); 5 to 10 nM in experiment [2] (Homo sapiens, Ramos); 10 to 50 nM in experiment [3] (Homo sapiens, OCI-Ly10, 120 h).

Regarding `COc1ccc(F)cc1C(=O)NCc1ccc(-c2nc(C(C)C(F)(F)F)cc3[nH]nc(N)c23)cc1` (single isomer, unassigned) [Example 3, N-(4-(3-amino-6-(1,1,1-trifluoropropan-2-yl)-1H-pyrazolo[4,3-c]pyridin-4-yl)benzyl)-5-fluoro-2-methoxybenzamide], the IC50 in experiment [1] lay in the range of 5 to 10 nM; in experiment [2] it was 5 to 10 nM; in experiment [3] (120 hours), 10 to 50 nM.

With `COc1ccc(F)cc1C(=O)NCc1ccc(-c2nc(C(C)C(F)(F)F)c(-c3ccn(C)n3)c3[nH]nc(N)c23)cc1` (single isomer, unassigned) [Example 6-1, N-(4-(3-amino-7-(1-methyl-1H-pyrazol-3-yl)-6-(1,1,1-trifluoropropan-2-yl)-1H-pyrazolo[4,3-c]pyridin-4-yl)benzyl)-5-fluoro-2-methoxybenzamide], the IC50 in experiment [1] (Homo sapiens) was at most 5 nM; in experiment [2] (Homo sapiens, Ramos) it was at most 5 nM; in experiment [3] (Homo sapiens, OCI-Ly10, 120 h), 5 to 10 nM.

Turning to `COc1ccc(F)cc1C(=O)NCc1ccc(-c2nc(C(C)C(F)(F)F)c(-c3ccn(C)n3)c3[nH]nc(N)c23)cc1` (single isomer, unassigned) [Example 6-2, N-(4-(3-amino-7-(1-methyl-1H-pyrazol-3-yl)-6-(1,1,1-trifluoropropan-2-yl)-1H-pyrazolo[4,3-c]pyridin-4-yl)benzyl)-5-fluoro-2-methoxybenzamide], the IC50 in experiment [1], in experiment [2] and in experiment [3] (120 hours) was at most 5 nM each time.

`COc1ccc(F)cc1C(=O)NCc1ccc(-c2nc(C(C)C(F)(F)F)c(-c3ncccn3)c3[nH]nc(N)c23)cc1` (single isomer, unassigned) [Example 7-1, N-(4-(3-amino-7-(pyrimidin-2-yl)-6-(1,1,1-trifluoropropan-2-yl)-1H-pyrazolo[4,3-c]pyridin-4-yl)benzyl)-5-fluoro-2-methoxybenzamide]: the IC50 is at most 5 nM in experiment [1] (Homo sapiens); at most 5 nM in experiment [2] (Homo sapiens, Ramos); at most 5 nM in experiment [3] (Homo sapiens, OCI-Ly10, 120 h).

For `COc1ccc(F)cc1C(=O)NCc1ccc(-c2nc(C(C)C(F)(F)F)c(-c3ncccn3)c3[nH]nc(N)c23)cc1` (single isomer, unassigned) [Example 7-2, N-(4-(3-amino-7-(pyrimidin-2-yl)-6-(1,1,1-trifluoropropan-2-yl)-1H-pyrazolo[4,3-c]pyridin-4-yl)benzyl)-5-fluoro-2-methoxybenzamide], the IC50 in experiment [1] is at most 5 nM; in experiment [2], 5 to 10 nM; in experiment [3] (120 hours), at most 5 nM.

With `COc1ccc(F)cc1C(=O)NCc1ccc(-c2nc(C(C)C(F)(F)F)c(-c3cc(C)[nH]n3)c3[nH]nc(N)c23)cc1` (stereo not drawn) [Example 9, N-(4-(3-amino-7-(5-methyl-1H-pyrazol-3-yl)-6-(1,1,1-trifluoropropan-2-yl)-1H-pyrazolo[4,3-c]pyridin-4-yl)benzyl)-5-fluoro-2-methoxybenzamide], the IC50 in experiment [1] (Homo sapiens) is at most 5 nM; in experiment [2] (Homo sapiens, Ramos), 5 to 10 nM; in experiment [3] (Homo sapiens, OCI-Ly10, 120 h) it was 5 to 10 nM.

For the compound `COc1ccc(F)cc1C(=O)NCc1ccc(-c2ncc(-c3ccccn3)c3[nH]nc(N)c23)cc1` [Example 15, N-(4-(3-amino-7-(pyridin-2-yl)-1H-pyrazolo[4,3-c]pyridin-4-yl)benzyl)-5-fluoro-2-methoxybenzamide], the IC50 in experiment [1] (Homo sapiens) was at most 5 nM; in experiment [2] (Homo sapiens, Ramos) it was 5 to 10 nM; in experiment [3] (Homo sapiens, OCI-Ly10, 120 h) it was 5 to 10 nM.

Consider `COc1ccc(F)cc1C(=O)NCc1ccc(-c2ncc(-c3ncccn3)c3[nH]nc(N)c23)cc1` [Example 17, N-(4-(3-amino-7-(pyrimidin-2-yl)-1H-pyrazolo[4,3-c]pyridin-4-yl)benzyl)-5-fluoro-2-methoxybenzamide], for which the IC50 lay within 5 to 10 nM in experiment [1] (Homo sapiens); 5 to 10 nM in experiment [2] (Homo sapiens, Ramos); 10 to 50 nM in experiment [3] (Homo sapiens, OCI-Ly10, 120 h).

Regarding `COc1ccc(F)cc1C(=O)NCc1ccc(-c2ncc(-c3cnccn3)c3[nH]nc(N)c23)cc1` [Example 18, N-(4-(3-amino-7-(pyrazin-2-yl)-1H-pyrazolo[4,3-c]pyridin-4-yl)benzyl)-5-fluoro-2-methoxybenzamide], the IC50 in experiment [1] (Homo sapiens) was in the range of 5 to 10 nM; in experiment [2] (Homo sapiens, Ramos), 10 to 50 nM; in experiment [3] (Homo sapiens, OCI-Ly10, 120 h), 10 to 50 nM.

With `COc1ccc(F)cc1C(=O)NCc1ccc(-c2ncc(-c3ccncn3)c3[nH]nc(N)c23)cc1` [Example 19], the IC50 lay in the range of 5 to 10 nM in experiment [1] (Homo sapiens); 5 to 10 nM in experiment [2] (Homo sapiens, Ramos); 10 to 50 nM in experiment [3] (Homo sapiens, OCI-Ly10, 120 h).

For the compound `COc1ccc(F)cc1C(=O)NCc1ccc(-c2ncc(-c3ccc(F)cn3)c3[nH]nc(N)c23)cc1` [Example 21, N-(4-(3-amino-7-(5-fluoropyridin-2-yl)-1H-pyrazolo[4,3-c]pyridin-4-yl)benzyl)-5-fluoro-2-methoxybenzamide], the IC50 in experiment [1] (Homo sapiens) is at most 5 nM; in experiment [2] (Homo sapiens, Ramos), at most 5 nM; in experiment [3] (Homo sapiens, OCI-Ly10, 120 h), 5 to 10 nM.

`COc1ccc(F)cc1C(=O)NCc1ccc(-c2ncc(-c3nccn4nccc34)c3[nH]nc(N)c23)cc1` [Example 98, N-(4-(3-amino-7-(pyrazolo[1,5-a]pyrazin-4-yl)-1H-pyrazolo[4,3-c]pyridin-4-yl)benzyl)-5-fluoro-2-methoxybenzamide] came in with an IC50 in experiment [2] (Homo sapiens, Ramos) of at most 5 nM.

In experiment [2] (Homo sapiens, Ramos), `COc1ccc(F)cc1C(=O)NCc1ccc(-c2ncc(-c3nc4ccccc4s3)c3[nH]nc(N)c23)cc1` [Example 99, N-(4-(3-amino-7-(benzo[d]thiazol-2-yl)-1H-pyrazolo[4,3-c]pyridin-4-yl)benzyl)-5-fluoro-2-methoxybenzamide] registered an IC50 of at most 5 nM.

In turn, `COc1ccc(F)cc1C(=O)NCc1ccc(-c2ncc(-c3nc4cccnc4s3)c3[nH]nc(N)c23)cc1` [Example 100, N-(4-(3-amino-7-(thiazolo[5,4-b]pyridin-2-yl)-1H-pyrazolo[4,3-c]pyridin-4-yl)benzyl)-5-fluoro-2-methoxybenzamide] gave an IC50 in experiment [2] (Homo sapiens, Ramos) of at most 5 nM.

Turning to `CCN1CCc2nc(-c3cnc(-c4ccc(CNC(=O)c5cc(F)ccc5OC)cc4)c4c(N)n[nH]c34)sc2C1` [Example 101, N-(4-(3-amino-7-(5-ethyl-4,5,6,7-tetrahydrothiazolo[5,4-c]pyridin-2-yl)-1H-pyrazolo[4,3-c]pyridin-4-yl)benzyl)-5-fluoro-2-methoxybenzamide], in experiment [2] (Homo sapiens, Ramos), the IC50 was at most 5 nM.

`COc1ccc(F)cc1C(=O)NCc1ccc(-c2ncc(-c3ccc4c(n3)nc3n4CCOC3)c3[nH]nc(N)c23)cc1` [Example 102, N-(4-(3-amino-7-(6,7-dihydro-9H-pyrido[2',3':4,5]imidazo[2,1-c][1,4]oxazin-2-yl)-1H-pyrazolo[4,3-c]pyridin-4-yl)benzyl)-5-fluoro-2-methoxybenzamide] registered an IC50 in experiment [2] (Homo sapiens, Ramos) of 10 to 50 nM.

Take `COc1ccc(F)cc1C(=O)NCc1ccc(-c2ncc(-c3ccc4c(n3)nc3n4C(C)COC3)c3[nH]nc(N)c23)cc1` (stereo not drawn) [Example 103, N-(4-(3-amino-7-(6-methyl-6,7-dihydro-9H-pyrido[2',3':4,5]imidazo[2,1-c][1,4]oxazin-2-yl)-1H-pyrazolo[4,3-c]pyridin-4-yl)benzyl)-5-fluoro-2-methoxybenzamide]: the IC50 in experiment [2] (Homo sapiens, Ramos) was in the range of 10 to 50 nM.

For `COc1ccc(F)cc1C(=O)NCc1ccc(-c2ncc(-c3cccnc3)c3[nH]nc(N)c23)cc1` [Example 105, N-(4-(3-amino-7-(pyridin-3-yl)-1H-pyrazolo[4,3-c]pyridin-4-yl)benzyl)-5-fluoro-2-methoxybenzamide], the IC50 in experiment [2] (Homo sapiens, Ramos) was over 50 nM.

In experiment [2] (Homo sapiens, Ramos), `COc1ccc(F)cc1C(=O)NCc1ccc(-c2ncc(-c3ccncc3)c3[nH]nc(N)c23)cc1` [Example 106, N-(4-(3-amino-7-(pyridin-4-yl)-1H-pyrazolo[4,3-c]pyridin-4-yl)benzyl)-5-fluoro-2-methoxybenzamide] showed an IC50 of over 50 nM.

“N-(4-(3-amino-7-(1-(difluoromethyl)-1H-pyrazol-3-yl)-1H-pyrazolo[4,3-c]pyridin-4-yl)benzyl)-5-fluoro-2-methoxybenzamide [Example 29]”: the IC50 in experiment [2] was at most 5 nM.
